Source: patent US20110092509A1, “Pharmaceutical Composition for Prevention or Treatment of Disease Associated with Tear Reduction” (Kissei Pharmaceutical, Co. Ltd., priority 2007, published 2011)
Counter-ions that a name gives are not always drawn.

Key:
Format in all cases: in vivo, rabbit
[1] = system: Japanese white rabbits; experiment: Measurement of quantity of tear secretion in rabbits (filter paper weight, ocular instillation); conditions: for Tear secretion: change before vs 5 min after instillation of 50 μL of 0.1 w/v % solution (phosphate buffer, pH7.4) to both eyes, anesthetized male rabbits, 5 min measurement, mean
Experimental: (§1) Three male Japanese white rabbits (about 3 kg) were allocated to each group. Each 50 μL of ½ sulfate salt of Compound 1 (0.1% phosphate buffer solution, pH7.4), terbutaline sulfate (0.1% phosphate buffer solution, pH7.4) or a solvent thereof (a phosphate buffer, pH7.4) was administered to both eyes of the rabbit which was anesthetized with pentobarbital (40 mg/kg, i.v.). Two pieces each of pre-weighed filter paper (Wattman No. 41, 0.22 μm thick, 2.5×15 mm) were inserted to the lower conjunctival sac of the right or left eye, and the difference in weight of the filter papers before and after insertion (post-insertion weight−pre-insertion weight) was defined as the quantity of tear secretion. The quantity of tear secretion was measured for 5 min before drug administration and for 5 min at 5 min after drug administration. Fifty (50) μL of a local anesthetic agent, 0.4% oxybuprocaine hydrochloride (Santen Co.), was instilled into eyes 5 min before each measurement. Tear and the instilled local anesthetic were wiped immediately before the filter paper was inserted.
(§2) Filter papers recovered after each measurement were placed into tubes. A phosphate buffer (pH 7.4) (500 μL) was added to each of the tubes, and they were mixed by vortex mixer for 30 sec. After the filter papers were removed and the mixture was centrifuged at 470×g for 5 min, protein concentrations in supernatant were measured using Micro BCA Protein Assay Reagent Kit (Pierce Co.). The quantity of protein in tear was calculated based on the measured protein concentration and quantity of tear secretion. The difference in the quantity of tear secretion before administration of a solvent, ½ sulfate of Compound 1 or terbutaline sulfate and that after administration was defined as a change in the quantity of tear secretion or protein in tear, respectively. Each milligram of the change in the quantity of tear was taken as 1 μL.

[2] = system: Japanese white rabbits; experiment: Measurement of quantity of protein in tear in rabbits (Micro BCA Protein Assay); conditions: for Change in protein in tear: change before vs after instillation of 50 μL of 0.1 w/v % solution to both eyes, anesthetized male rabbits, mean
Experimental: as §1, §2

[3] = system: PAS positive goblet cells; experiment: Mucin secretion from conjunctiva in rabbits: count of PAS positive goblet cells by impression cytology; conditions: 0.1 w/v % instilled; for Count of PAS-positive goblet cells: percentage of the solvent group, decrease indicates facilitated mucin secretion from conjunctiva, mean
Experimental: In addition, at the same timing of measurement of the quantity of tear secretion, 3 mm diameter cellulose acetate filter paper was pressed on the conjunctiva for 30 sec. by impression cytology method, and periodic acid/Schiff (PAS) staining was performed with the recovered filter papers. After filter papers were cleared and embedded, the number of PAS positive goblet cells existing in a certain visual field of a microscope was counted.
Decreases in the count of PAS positive goblet cells indicate that mucin secretion from the conjunctiva is facilitated. Each value is mean of 4 animals, and ½ sulfate of Compound 1 increased extremely about 30% more in the quantity of tear secretion, about 200% more the quantity of protein in tear and about 50% more mucin secretion from conjunctiva in comparison with the solvent and terbutaline sulfate.

[4] = 0.1 w/v % instilled, rabbits, '% more'

Row | SMILES | Effect on quantity of tear secretion (in words) ([1]; 0.1 w/v % instilled, rabbits) | Tear secretion [1] | Effect on quantity of protein in tear (in words) ([2]; 0.1 w/v % instilled, rabbits) | Change in protein in tear [2] | Effect on mucin secretion from conjunctiva (in words) ([3]; rabbits) | Count of PAS-positive goblet cells [3] | Increase in quantity of tear secretion in comparison with the solvent and terbutaline sulfate [1, 4] | Increase in quantity of protein in tear in comparison with the solvent and terbutaline sulfate [2, 4] | Increase in mucin secretion from conjunctiva in comparison with the solvent and terbutaline sulfate ([3]; rabbits, '% more')
1 | C[C@H](Cc1ccc2c(c1)OC[C@H](C(=O)O)O2)NC[C@H](O)c1cccc(Cl)c1 [Compound N-5984, 6-[2-(R)-[[2-(R)-(3-chlorophenyl)-2-hydroxyethyl]amino]propyl]-2,3-dihydro-1,4-benzodioxine-2-(R)-carboxylic acid] | extremely increased | 4.42 µL | extremely increased | 2.72 µg | extremely increased | 57.1% |  |  | 
2 | CC(C)(C)NCC(O)c1cc(O)cc(O)c1 (stereo not drawn) [Terbutaline sulfate, reference compound] |  | 3.80 µL |  | 1.04 µg |  | 77.3% |  |  | 
3 | CN(C)C(=O)COc1ccc2c(c1)C[C@@H](NC[C@H](O)c1ccc(O)cc1)CC2 [½ sulfate of Compound 1, 2-[(2S)-2-[[(2R)-2-hydroxy-2-(4-hydroxyphenyl)ethyl]-amino]-1,2,3,4-tetrahydronaphthalen-7-yloxy]-N,N-dimethyl-acetamide] |  | 4.87 µL |  | 2.57 µg |  | 64.8% | about 30% | about 200% | about 50%
